Data published in publication PMC10964233, “Antigen-Mimic Nanoparticles in Ultrasensitive on-Chip Integrated Anti-p53 Antibody Quantification” (ACS Sensors, 2024).
One block for each substance: values may come before it.

Key:
[1] = test system: DO-1 peptide/HRP-IONPs with Con A-modified SPCEs; experiment: Assay specificity (SWV responses of interferents); details: equivalent MAC immunoisolation conditions, Figure S17
Procedure: Following a 10 min incubation of the antibody–IONP immunocomplexes on Con A-modified SPCEs, and subsequent washing with PBS, 100 μL of the high-sensitivity TMB substrate was added and left to react for 5 min. Square-wave voltammetry (SWV) scans were then conducted from +1.0 to −0.5 V (vs Ag/AgCl), at an amplitude of 20 mV, a potential step of 2 mV, and a frequency of 50 Hz. […] Recovery assays were conducted using DO-1 antibodies spiked into 1.0 mg/mL BSA or 1.0% human serum (human male AB plasma, Sigma, UK).
To evaluate the performance in spiked samples, recovery tests were performed in 1.0 mg/mL BSA and diluted human serum.

[2] = test system: Con A-modified electrode interfaces; experiment: Antibody selectivity of Con A-modified electrode interfaces; type: binding; details: 1.0 mg/mL nonspecific protein; Figure S7
Concanavalin A = experiment: SPR + other: electrochemical impedance spectroscopy; SPR at Con A-saturated gold chips with a BSA-saturated surface as reference (298 K, 30 uL/min, 10 mM PBS pH 7.4); EIS at Con A-modified SPCEs in 5 mM [Fe(CN)6]3-/4- PBS pH 7.4; both responses fitted to Langmuir-Freundlich isotherms, Kd from the plot mean

Substance: bovine serum albumin [BSA]
Voltammetric response relative to 50 ng/mL DO-1 antibody ([1]; 1.0 mg/mL): < 10%
Response at Con A interface relative to DO-1 antibody [2]: < 10%

Substance: immunoglobulin G
Voltammetric response relative to 50 ng/mL DO-1 antibody ([1]; 10.0 μg/mL (antibody control)): < 10%

Kd (Concanavalin A): 13.6 nM
Substance: monoclonal DO-1 antibody
